Source: patent US20100197586A1, “USE OF SECRETIN AND OPTIONALLY URODILATIN AS THERAPEUTIC AGENTS” (priority 2007, published 2010)
Where no end group is shown, it is not given here.

How the values were obtained:
HIV-1IIIB = assay: HIV-1 antiviral assay in CEM-SS cells
HCMV strain AD169 = assay: HCMV plaque assay in MRC-5 cells; settings: for inhibition of HCMV plaque formation as compared to the virus control experiment: 10 micrograms per ml, MRC-5 cells, 7-10 days
MRSA = assay: Methicillin Resistant Staphylococcus Aureus (MRSA) assay; settings: 10 micrograms per ml; 5×10^5 CFU/mL; combination for instance 0.95 mole peptide 1 and 1.05 mole peptide 2
Interleukin-2 (IL-2) = assay: Th1/Th2 cytokine profiling assay: IL-2; type: cell-based, mouse; settings: 10 micrograms per ml, 72 hours
[1] = system: Tumor Necrosis Factor-α (TNF-α); assay: Th1/Th2 cytokine profiling assay: TNF-α; type: cell-based, mouse; settings: 10 micrograms per ml; Ovalbumin-restimulated spleen cells, 72 hours; combination 0.95 mole peptide 1 and 1.05 mole peptide 2
Interleukin-5 (IL-5) = assay: Th1/Th2 cytokine profiling assay: IL-5; type: cell-based, mouse; settings: 10 micrograms per ml; Ovalbumin-restimulated spleen cells, 72 hours
[2] = system: Primary Human endothelial cells (HUVEC); assay: Endothelial cell migration assay; type: cell-based; settings: 10 micrograms per ml, 22 hours
Interleukin-4 (IL-4) = assay: Th1/Th2 cytokine profiling assay: IL-4; type: cell-based, mouse; settings: 10 micrograms per ml, Ovalbumin-restimulated spleen cells, 72 hours
[3] = system: hepatitis B virus (HBV) ayw strain; assay: HBV experimental assay system (HepG2-2.2.15, TaqMan PCR of HBV DNA); type: cell-based; settings: 10 micrograms per ml; HepG2-2.2.15, six days; combination 0.95 mole peptide 1 and 1.05 mole peptide 2
Text: HepG2-2.2.15 is a stable cell line containing the hepatitis B virus (HBV) ayw strain genome (ATCC Cat. No. CRL-11997). Antiviral compounds blocking any late step of viral replication such as transcription, translation, pregenome encapsidation, reverse transcription, particle assembly and release can be identified and characterized using this cell line. In this assay, an active compound will reduce the production of secreted HBV from cells, measured by utilizing real time quantitative PCR (TaqMan) assay to directly and accurately measure HBV DNA copies.
HepG2-2.2.15 cells were plated in 96-well microtiter plates. After 16-24 hours the confluent monolayer of HepG2-2.2.15 cells was washed and the medium was replaced with complete medium containing test peptides—10 micrograms per ml—in duplicate. […] Six days following the initial administration of the peptides, the cell culture supernatants was collected, treated with pronase and DNAse and then used in a real-time quantitative TaqMan PCR assay. The PCR-amplified HBV DNA was detected in real-time by monitoring increases in fluorescence signals that result from the exonucleolytic degradation of a quenched fluorescence probe molecule that hybridizes to the amplified HBV DNA. […] Antiviral activity was calculated from the reduction in HBV DNA levels (% virus control). […]

HUVEC = assay: Endothelial tube formation assay; type: cell-based, human; settings: 10 micrograms per ml, 20 hours, combination peptide 1:peptide 2 1.10 mole:0.90 mole
Text: Positive control was vehicle only.

Interferon-γ (IFN-γ) = assay: Th1/Th2 cytokine profiling assay: IFN-γ; type: cell-based, mouse; settings: 10 micrograms per ml; Ovalbumin-restimulated spleen cells, 72 hours; combination 0.95 mole peptide 1 and 1.05 mole peptide 2

Row | Compound | antiviral activity of positive control compounds (HIV-1) (HIV-1IIIB) | inhibition of the growth of MRSA (MRSA) [%] | change of the production of TNF-alpha in murine spleen cells [1] | inhibition of the migration of human endothelial cells [2] [%] | inhibition of HBV replication as compared to the virus control infection [3] | inhibition of HCMV plaque formation as compared to the virus control experiment (HCMV strain AD169) | inhibition of the tube formation of human endothelial cells (HUVEC) [%] | change of the production of IFN-γ in murine spleen cells (Interferon-γ (IFN-γ)) | further results
1 | Cc1cn([C@H]2C[C@H](N=[N+]=[N-])[C@@H](CO)O2)c(=O)[nH]c1=O [AZT] | expected levels of antiviral activity |  |  |  |  |  |  |  | 
2 | Nc1nc(O)c2ncn(COC(CO)CO)c2n1 [Ganciclovir, reference compound] |  |  |  |  |  |  |  |  | antiviral activity of positive control compound (HCMV) (HCMV strain AD169; positive control compound): expected levels of antiviral activity
3 | CC(C)(C)NC(=O)[C@@H]1CN(Cc2cccnc2)CCN1C[C@@H](O)C[C@@H](Cc1ccccc1)C(=O)N[C@H]1c2ccccc2C[C@H]1O [indinavir] | expected levels of antiviral activity |  |  |  |  |  |  |  | 
4 | His-Ser-Asp-Gly-Thr-Phe-Thr-Ser-Glu-Leu-Ser-Arg-Leu-Arg-Glu-Gly-Ala-Arg-Leu-Gln-Arg-Leu-Leu-Gln-Gly-Leu-Val-NH2 [Peptide 1] |  | 100 | did not significantly change | 2 | 27.6% | did not inhibit | 33 | did not significantly change | decrease of the production of IL-2 in murine spleen cells (Interleukin-2 (IL-2); Ovalbumin-restimulated spleen cells of Balb/c mice): 77.7%; decrease of the production of IL-5 (Interleukin-5 (IL-5)): 45.8%; change of the production of IL-4 in murine spleen cells (Interleukin-4 (IL-4)): did not significantly change
5 | Thr-Ala-Pro-Arg-Ser-Leu-Arg-Arg-Ser-Ser-Cys-Phe-Gly-Gly-Arg-Met-Asp-Arg-Ile-Gly-Ala-Gln-Ser-Gly-Leu-Gly-Cys-Asn-Ser-Phe-Arg-Tyr-OH (TAPRSLRRSSCFGGRMDRIGAQSGLGCNSFRY-OH; ends and bridges not checked) [Peptide 2, Urodilatin] |  | 100 | did not significantly change | 10 | did not inhibit | did not inhibit | 9 | did not significantly change | change of the production of IL-2 in murine spleen cells (Interleukin-2 (IL-2); Ovalbumin-restimulated spleen cells, combination 0.95 mole peptide 1 and 1.05 mole peptide 2): did not significantly change; suppression of the production of IL-4 in murine spleen cells (Interleukin-4 (IL-4)): 30.4%; induction of the production of IL-4 (Interleukin-4 (IL-4); combination 0.95 mole peptide 1 and 1.05 mole peptide 2): 59.7%
